In patent publication US6916812B2, “Alpha-aminoamide derivatives as melanocortin agonists” (Bristol-Myers Squibb Company, priority 2001, dated 2005):
Read-outs that look alike come from different tables or passages of the source.

Biological target: T1, cloned human MC4R (Homo sapiens, UniProt P32245)
T1 construct: made in house; host or cells: Hi5 insect cells (baculovirus infection); membrane preparation
Assay: Membrane binding assay: competitive inhibition of [125I]NDP-α-MSH binding
Conditions: for IC50: read-out: MC4R IC50; for inhibition at 10 µM: read-out: Displacement Rate (%) (at 10 μM)
Procedure: Hi5 cells are infected using the following protocol: Cells at a density of 1×10^6 cells/mL are spun down at 1000 rpm (Beckman GS-6KR centrifuge) for 10 minutes. Cells are resuspended in 10% of their original volume in a sterile 50 mL conical centrifuge tube wrapped with aluminum foil. Virus is added at a Multiplicity of Infection (MOI) of 3 and incubated for 1 hour at room temperature with gentle shaking. […] Cells are spun down in 50 mL conical centrifuge tubes at 1000 rpm for 10 minutes. Each of the resulting pellets are resuspended in 10 mL of cold (4° C.) membrane buffer (25 mM HEPES, pH 7.4, 140 mM NaCl, 1.2 mM MgCl2, 2.5 mM CaCl2, 10 μG/mL Aprotinin, 10 μG/mL Leupeptin) and Dounce homogenized using 10-12 strokes. […] The resulting pellet is resuspended in cold membrane buffer in a total of ¼ of the original volume by vortexing and aspiration using a syringe and 27 gauge needle. Protein content is determined (Bradford, Bio-Rad Protein Assay). Membranes are aliquoted in microcentrifuge tubes and quick frozen in liquid nitrogen. Store at −80° C. until use. The membrane binding buffer is composed of 25 mM HEPES, pH 7.4, 140 mM NaCl, 1.2 mM MgCl2, 2.5 mM CaCl2, 0.1% BSA. […] The mixture is filtered with Brandel Microplate 96 filter apparatus using 96-well GF/B filter presoaked in 1-% polyethyleneimine (Sigma). The filter is washed (4 times with a total of 1 mL per well) with cold wash buffer consisting of 20 mM HEPES, pH 7.4, 5 mM MgCl2. […] 100 μl of Wallac Optiphase Supermix scintillation fluid is added to each well. The top is sealed and the plates are shaken to insure that the filters are thoroughly soaked with fluid. […] Dose-response curves are fitted by […] analyses and IC50 values are calculated using ExcelFit.

[1] = at 10 μM, [125I]NDP-α-MSH displacement

T1 sequence (P32245 whole entry): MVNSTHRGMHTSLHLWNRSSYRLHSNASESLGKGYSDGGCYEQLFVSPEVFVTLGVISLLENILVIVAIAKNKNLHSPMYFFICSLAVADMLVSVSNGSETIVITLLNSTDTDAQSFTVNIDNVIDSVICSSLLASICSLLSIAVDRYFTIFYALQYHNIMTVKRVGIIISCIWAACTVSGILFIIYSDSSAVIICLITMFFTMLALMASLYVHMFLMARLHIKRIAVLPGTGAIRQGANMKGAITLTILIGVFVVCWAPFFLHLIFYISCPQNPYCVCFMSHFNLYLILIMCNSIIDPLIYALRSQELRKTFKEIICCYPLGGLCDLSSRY

Row | IC50 [nM] | inhibition at 10 µM [1] [%] | Displacement Rate (%) (at 10 μM) [1] | Structure (SMILES) | inhibition at 10 µM [%]
1 | < 1500 |  |  | N[C@@H](Cc1ccc(-c2ccccc2)cc1)C(=O)N1CCN(Cc2cccc(Cl)c2Cl)CC1 [Example 289] | 
2 | > 3000 | 71 to 90 |  | N[C@@H](Cc1ccc(OCc2ccccc2)cc1)C(=O)N1CCCN(CCCc2ccccc2)CC1 [Example 42] | 
3 | < 1500 | 71 to 90 |  | CC(C)N[C@@H](Cc1ccc(OCc2ccccc2)cc1)C(=O)N1CCN(Cc2cccc(Cl)c2Cl)CC1 [Example 168] | 
4 | < 1500 | 91 to 100 |  | N[C@@H](Cc1ccc(-c2cccc(Cl)c2Cl)cc1)C(=O)N1CCN(Cc2cccc(Cl)c2Cl)CC1 [Example 299] | 
5 | < 1500 |  | +++ (+++ = 91-100) | N[C@@H](Cc1ccc(OCc2c(F)c(F)c(F)c(F)c2F)cc1)C(=O)N1CCN(Cc2cccc(Cl)c2Cl)CC1 [Example 185] | 
6 | < 1500 | 91 to 100 |  | N[C@@H](Cc1ccc(-c2ccc(C(F)(F)F)cc2)cc1)C(=O)N1CCN(Cc2cccc(Cl)c2Cl)CC1 [Example 304] | 
7 | < 1500 |  | +++ (+++ = 91-100) | N[C@@H](Cc1ccc(OCc2ccccc2C(F)(F)F)cc1)C(=O)N1CCN(Cc2cccc(Cl)c2Cl)CC1 [Example 182] | 
8 | < 1500 |  | +++ (+++ = 91-100) | N[C@@H](Cc1ccc(OCCc2cccc(F)c2)cc1)C(=O)N1CCN(Cc2cccc(Cl)c2Cl)CC1 [Example 240] | 
9 | < 1500 | 91 to 100 |  | N[C@@H](Cc1ccc(OCc2ccccc2)cc1)C(=O)N1CCCN(Cc2cn(Cc3ccccc3)c3ccccc23)CC1 [Example 9] | 
10 | > 3000 |  | ++ (++ = 71-90) | N[C@@H](Cc1ccc(OCCc2ccc([N+](=O)[O-])cc2)cc1)C(=O)N1CCN(Cc2cccc(Cl)c2Cl)CC1 [Example 258] | 
11 | > 3000 | 35 to 70 |  | CC(Cc1cccc(C(F)(F)F)c1)N1CCN(C(=O)[C@@H](N)Cc2ccc(OCc3ccccc3)cc2)CC1 (some centres unmarked) [Example 136] | 
12 | < 1500 |  | +++ (+++ = 91-100) | N[C@@H](Cc1ccc(OCCc2cccc(Br)c2)cc1)C(=O)N1CCN(Cc2cccc(Cl)c2Cl)CC1 [Example 248] | 
13 | < 1500 |  | +++ (+++ = 91-100) | CC(C)c1ccc(COc2ccc(C[C@H](N)C(=O)N3CCN(Cc4cccc(Cl)c4Cl)CC3)cc2)cc1 [Example 195] | 
14 | 1500 to 3000 | 71 to 90 |  | CCCCc1ccc(CN2CCCN(C(=O)[C@@H](N)Cc3ccc(OCc4ccccc4)cc3)CC2)cc1 [Example 35] | 
15 | > 3000 | 35 to 70 |  | Cc1cccc(CN2CCCN(C(=O)[C@@H](N)Cc3ccc(OCc4ccccc4)cc3)CC2)c1 [Example 65] | 
16 | > 3000 | 35 to 70 |  | N[C@@H](Cc1ccc(OCc2ccccc2)cc1)C(=O)N1CCCN(Cc2ccccc2)CC1 [Example 60] | 
17 | < 1500 | 91 to 100 |  | CCCN[C@@H](Cc1ccc(OCc2ccccc2)cc1)C(=O)N1CCN(Cc2cccc(Cl)c2Cl)CC1 [Example 167] | 
18 | > 3000 | 71 to 90 |  | N[C@@H](Cc1ccc(OCc2ccccc2)cc1)C(=O)N1CCCN(C2CCC(c3ccccc3)CC2)CC1 (some centres unmarked) [Example 41] | 
19 | 1500 to 3000 | 71 to 90 |  | O=C([C@H](Cc1ccc(OCc2ccccc2)cc1)NCCN1CCOCC1)N1CCN(Cc2cccc(Cl)c2Cl)CC1 [Example 172] | 
20 | > 3000 | 35 to 70 |  | Cc1cccc(CN2CCN(C(=O)[C@@H](N)Cc3ccc(OCc4ccccc4)cc3)CC2)c1 [Example 144] | 
21 | 1500 to 3000 | 71 to 90 |  | CC(C)(C)c1cc(CN2CCCN(C(=O)[C@@H](N)Cc3ccc(OCc4ccccc4)cc3)CC2)cc(C(C)(C)C)c1O [Example 26] | 
22 | < 1500 | 91 to 100 |  | CCc1ccc(-c2ccc(C[C@H](N)C(=O)N3CCN(Cc4cccc(Cl)c4Cl)CC3)cc2)cc1 [Example 291] | 
23 | 1500 to 3000 | 91 to 100 |  | COc1ccc(-c2ccc(C[C@H](N)C(=O)N3CCN(Cc4cccc(Cl)c4Cl)CC3)cc2)cc1 [Example 317] | 
24 | 1500 to 3000 | 91 to 100 |  | N[C@@H](Cc1ccc(-c2ccc(-c3ccccc3)cc2)cc1)C(=O)N1CCN(Cc2cccc(Cl)c2Cl)CC1 [Example 314] | 

Row | IC50 [nM] | inhibition at 10 µM [1] [%] | Displacement Rate (%) (at 10 μM) [1] | Structure (SMILES) | inhibition at 10 µM [%]
25 | 1500 to 3000 | 71 to 90 |  | CCCOc1ccc(CN2CCN(C(=O)[C@@H](N)Cc3ccc(OCc4ccccc4)cc3)CC2)cc1 [Example 126] | 
26 | < 1500 | 91 to 100 |  | O=C([C@H](Cc1ccc(OCc2ccccc2)cc1)NCCCN1CCOCC1)N1CCN(Cc2cccc(Cl)c2Cl)CC1 [Example 173] | 
27 |  | 71 to 90 |  | N[C@@H](Cc1ccc(OCc2ccccc2)cc1)C(=O)N1CCN(Cc2cccc3ccccc23)CC1 [Example 127] | 
28 | < 1500 |  | +++ (+++ = 91-100) | N[C@@H](Cc1ccc(OCCc2cccc(Cl)c2)cc1)C(=O)N1CCN(Cc2cccc(Cl)c2Cl)CC1 [Example 249] | 
29 | 1500 to 3000 | 35 to 70 |  | COc1cc(CN2CCN(C(=O)[C@@H](N)Cc3ccc(OCc4ccccc4)cc3)CC2)ccc1OCc1ccc([N+](=O)[O-])cc1 [Example 150] | 
30 | < 1500 | 91 to 100 |  | N[C@@H](Cc1ccc(-c2ccc(Cl)cc2Cl)cc1)C(=O)N1CCN(Cc2cccc(Cl)c2Cl)CC1 [Example 307] | 
31 | > 3000 | 35 to 70 |  | COc1cccc(CN2CCCN(C(=O)[C@@H](N)Cc3ccc(OCc4ccccc4)cc3)CC2)c1OC [Example 54] | 
32 | < 1500 | 91 to 100 |  | N[C@@H](Cc1ccc(-c2ccc(Cl)cc2)cc1)C(=O)N1CCN(Cc2cccc(Cl)c2Cl)CC1 [Example 298] | 
33 | < 1500 |  | +++ (+++ = 91-100) | N[C@@H](Cc1ccc(OCCc2cccc(OCc3ccccc3)c2)cc1)C(=O)N1CCN(Cc2cccc(Cl)c2Cl)CC1 [Example 250] | 
34 | < 1500 |  | +++ (+++ = 91-100) | N[C@@H](Cc1ccc(OCc2cccc(Br)c2)cc1)C(=O)N1CCN(Cc2cccc(Cl)c2Cl)CC1 [Example 197] | 
35 | < 1500 |  | +++ (+++ = 91-100) | Cc1ccc(CCOc2ccc(C[C@H](N)C(=O)N3CCN(Cc4cccc(Cl)c4Cl)CC3)cc2)cc1 [Example 239] | 
36 | < 1500 |  | +++ (+++ = 91-100) | COc1ccc(CCOc2ccc(C[C@H](N)C(=O)N3CCN(Cc4cccc(Cl)c4Cl)CC3)cc2)cc1 [Example 254] | 
37 | 1500 to 3000 | 91 to 100 |  | N[C@@H](Cc1ccc(OCc2ccccc2)cc1)C(=O)N1CCN(Cc2ccc(C(F)(F)F)cc2C(F)(F)F)CC1 [Example 98] | 
38 | < 1500 | 91 to 100 |  | Cc1ccc(S(=O)(=O)n2cc(CN3CCN(C(=O)[C@@H](N)Cc4ccc(OCc5ccccc5)cc4)CC3)c3ccccc32)cc1 [Example 97] | 
39 | < 1500 | 71 to 90 |  | CCCCCOc1ccc(CN2CCCN(C(=O)[C@@H](N)Cc3ccc(OCc4ccccc4)cc3)CC2)cc1 [Example 32] | 
40 | < 1500 |  |  | CN[C@@H](Cc1ccc(OCc2ccccc2)cc1)C(=O)N1CCN(Cc2cccc(Cl)c2Cl)CC1 [Example 165] | 
41 | < 1500 |  | +++ (+++ = 91-100) | N[C@@H](Cc1ccc(OCCCc2ccccc2)cc1)C(=O)N1CCN(Cc2cccc(Cl)c2Cl)CC1 [Example 261] | 
42 | > 3000 | 35 to 70 |  | N[C@@H](Cc1ccc(OCc2ccccc2)cc1)C(=O)N1CCN(Cc2c(F)cccc2Cl)CC1 [Example 140] | 
43 | < 1500 |  | +++ (+++ = 91-100) | N[C@@H](Cc1ccc(OCCc2cccc(C(F)(F)F)c2)cc1)C(=O)N1CCN(Cc2cccc(Cl)c2Cl)CC1 [Example 255] | 
44 | > 3000 |  | ++ (++ = 71-90) | N[C@@H](Cc1ccc(OCc2cc3c(cc2[N+](=O)[O-])OCO3)cc1)C(=O)N1CCN(Cc2cccc(Cl)c2Cl)CC1 [Example 229] | 
45 | > 3000 | 35 to 70 |  | N[C@@H](Cc1ccc(OCc2ccccc2)cc1)C(=O)N1CCCN(Cc2ccc(F)cc2)CC1 [Example 78] | 
46 | 1500 to 3000 | 91 to 100 |  | N[C@@H](Cc1ccc(OCc2ccccc2)cc1)C(=O)N1CCN(Cc2ccccc2C(F)(F)F)CC1 [Example 94] | 
47 | > 3000 | 35 to 70 |  | COc1cccc(CC(C)N2CCCN(C(=O)[C@@H](N)Cc3ccc(OCc4ccccc4)cc3)CC2)c1 (some centres unmarked) [Example 63] | 
48 | > 3000 | 35 to 70 |  | CN(C)c1ccc(CN2CCCN(C(=O)[C@@H](N)Cc3ccc(OCc4ccccc4)cc3)CC2)cc1 [Example 79] | 

Row | Structure (SMILES) | IC50 [nM] | inhibition at 10 µM [1] [%] | Displacement Rate (%) (at 10 μM) [1] | inhibition at 10 µM [%]
49 | N[C@@H](Cc1ccc(OCc2ccccc2)cc1)C(=O)N1CCN(Cc2ccc(Cl)c([N+](=O)[O-])c2)CC1 [Example 114] | > 3000 |  |  | 71 to 90
